Measurements as given in US11505575B2, “Cyclic polypeptides for PCSK9 inhibition” (Merck Sharp & Dohme LLC, priority 2018, dated 2022).
*1 amine or outer side, *2 acyl side, *3 side chain or, on linkers, in order; H or OH if unused. Where a SMILES comes first, the peptide text is derived from it. Bridges are numbered along the chain shown (N, C = ends). [ ]: non-standard residue; d: D form. ξ: configuration not given here. Phe(3-CF3) = N[C@@H](Cc1cccc(C(F)(F)F)c1)C(=O)O; Trp(7-aza) = N[C@@H](Cc1c[nH]c2ncccc12)C(=O)O; pT = C[C@@H](OP(=O)(O)O)[C@H](N)C(=O)O; mXylylene = c1cc(C[*:1])cc(C[*:2])c1; pS = N[C@@H](COP(=O)(O)O)C(=O)O; aThr = C[C@H](O)[C@H](N)C(=O)O; Tle = CC(C)(C)[C@H](N)C(=O)O; αMeV = CC(C)[C@](C)(N)C(=O)O; αMeS = C[C@](N)(CO)C(=O)O; ξαMeS = CC(N)(CO)C(=O)O; Aib = CC(C)(N)C(=O)O; Mpa = O=C(O)CCS

What was measured:
Format in all cases: binding
PCSK9 [1] = target: T1, PCSK9 (Homo sapiens, UniProt Q8NBP7); test: PCSK9 Alexa FRET Standard assay (displacement of AlexaFluor647-tagged cyclic peptide Reagent A); settings: 0.5 nM PCSK9, 20 nM AF cyclic peptide Reagent A
T1 construct: biotin (biotinylated)
T1 sequence (Q8NBP7 153-692): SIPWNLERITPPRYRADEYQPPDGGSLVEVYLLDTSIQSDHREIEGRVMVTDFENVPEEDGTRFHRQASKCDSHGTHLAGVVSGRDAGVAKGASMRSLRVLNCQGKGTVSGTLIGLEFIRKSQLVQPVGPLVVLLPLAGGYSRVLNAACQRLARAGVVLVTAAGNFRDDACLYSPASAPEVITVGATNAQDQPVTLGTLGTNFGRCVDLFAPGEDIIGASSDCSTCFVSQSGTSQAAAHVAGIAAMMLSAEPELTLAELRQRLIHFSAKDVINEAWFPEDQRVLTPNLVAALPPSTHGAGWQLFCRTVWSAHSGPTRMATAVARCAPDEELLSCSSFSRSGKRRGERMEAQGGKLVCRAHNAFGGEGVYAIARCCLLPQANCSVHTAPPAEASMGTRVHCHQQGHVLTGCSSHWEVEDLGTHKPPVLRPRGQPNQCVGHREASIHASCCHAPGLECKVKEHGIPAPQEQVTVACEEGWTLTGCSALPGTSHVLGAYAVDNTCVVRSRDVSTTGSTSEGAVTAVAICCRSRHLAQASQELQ

PCSK9 [2] = target: T1, PCSK9; test: PCSK9 Alexa FRET Plus assay (displacement of AlexaFluor647-tagged cyclic peptide Reagent B); settings: 0.5 nM PCSK9, 960 nM AF cyclic peptide Reagent B
Experimental: A solution containing 1 nM biotinylated PCSK9+2.5 nM Lance Streptavidin Europium (Strep-Eu) was made in 50 mM HEPES pH 7.4, 0.15 M NaCl, 5 mM CaCl2, 0.01% BSA, and 0.01% Surfactant P20. A separate solution containing 1920 nM of the AlexaFluor tagged cyclic peptide was made in the same buffer system. An Echo was used to transfer 0.075 ul of compound plus 0.675 ul of DMSO to each well of an assay plate followed by the addition of 15 ul of PCSK9+Stept-Eu and 15 ul of AF peptide. The final assay volume was 30.750 ul containing 0.5 nM PCSK9, 1.25 nM Strep-Eu, and 960 nM AF cyclic peptide. The reaction was incubated at room temperature for at least two hours prior to fluorescence measurements using an Envision Multilabel Reader. IC50 values were determined by fitting data to a sigmoidal dose-response curve using nonlinear regression. Ki was then calculated from the IC50 and the KD of AF cyclic peptide. Counts (B-counts) of the europium-labeled PCSK9 were followed to observe if compounds were adversely affecting PCSK9. A fall off of the B-counts likely indicated a false positive of inhibition. Data from this procedure was reported as “P=‘numerical value’ (nanomolar)”

[3] = target: human PCSK9 / human LDLR EGFa domain interaction (Homo sapiens, UniProt Q8NBP7); test: TR-FRET assay of inhibition of the PCSK9-LDLR protein-protein interaction; settings: 20 nM biotinylated human PCSK9 + 20 nM his-tagged human LDLR EGFa domain, 2 hours room temperature
Sequence of human PCSK9 / human LDLR EGFa domain interaction (Q8NBP7 153-692): as above
Sequence of human PCSK9 / human LDLR EGFa domain interaction (Q8NBP7 31-152 partner limits assumed): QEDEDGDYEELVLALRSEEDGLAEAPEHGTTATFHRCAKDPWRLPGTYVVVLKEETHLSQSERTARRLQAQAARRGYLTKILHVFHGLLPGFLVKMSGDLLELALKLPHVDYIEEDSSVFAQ
Procedure, shortened: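 Biotinylated human PCSK9 (20 nM) and His-tagged human LDLR EGFa domain (20 nM) incubated with Ulight-streptavidin and Eu-anti-His (5 nM each), 2 h at room temperature, in HEPES pH buffer with 5 mM CaCl2. TR-FRET read-out; IC50 from 4-parameter fit of dose-response.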

| SMILES | IC50 (PCSK9 [1]) | IC50 (PCSK9 [2]) | IC50 [3] |
| --- | --- | --- | --- |
| CC(=O)N[C@H]1CSCc2cccc(c2)CSC[C@H](C(N)=O)NC(=O)[C@H]([C@@H](C)O)NC(=O)[C@](C)(C(C)C)NC(=O)[C@H](Cc2ccc(O)cc2)NC(=O)[C@H](C)NC(=O)[C@](C)(CO)NC(=O)[C@H](Cc2c[nH]c3ncccc23)NC(=O)[C@H]([C@@H](C)O)NC(=O)[C@@H]2CCCN2C(=O)[C@H](Cc2ccc(O)cc2)NC(=O)[C@H](C(C)(C)C)NC1=O [Compound 031] (Ac-C[Tle]YPT[Trp(7-aza)][αMeS]AY[αMeV]T[dC]-NH2; linker 1-12 via mXylylene) | 1 to 100 nM | 1 to 100 nM |  |
| CC(C)[C@]1(C)NC(=O)[C@H](Cc2ccc(O)cc2)NC(=O)[C@H](C)NC(=O)C(C)(C)NC(=O)[C@H](Cc2c[nH]c3ncccc23)NC(=O)[C@H]([C@@H](C)O)NC(=O)[C@@H]2CCCN2C(=O)[C@H](Cc2ccc(O)cc2)NC(=O)[C@H](C(C)(C)C)NC(=O)CCSCc2cccc(c2)CSC[C@@H](C(N)=O)NC(=O)[C@H](COP(=O)(O)O)NC1=O [Compound 016] ([Mpa][Tle]YPT[Trp(7-aza)][Aib]AY[αMeV][pS]C-NH2; linker 1-12 via mXylylene) | 1 to 100 nM | 1 to 100 nM | 1 to 100 nM |
| CC(C)[C@]1(C)NC(=O)[C@H](Cc2ccc(O)cc2)NC(=O)[C@H](C)NC(=O)C(C)(C)NC(=O)[C@H](Cc2c[nH]c3ncccc23)NC(=O)[C@H]([C@@H](C)O)NC(=O)[C@@H]2CCCN2C(=O)[C@H](Cc2ccc(O)cc2)NC(=O)[C@H](C(C)(C)C)NC(=O)CCSCc2cccc(c2)CSC[C@@H](C(N)=O)NC(=O)[C@H]([C@@H](C)OP(=O)(O)O)NC1=O [Compound 015] ([Mpa][Tle]YPT[Trp(7-aza)][Aib]AY[αMeV][pT]C-NH2; linker 1-12 via mXylylene) | 1 to 100 nM | 1 to 100 nM | 1 to 100 nM |
| CC1O[C@@H](C)[C@@H]2NC(=O)[C@@]1(C)NC(=O)[C@H](Cc1ccc(OP(=O)(O)O)cc1)NC(=O)[C@H](C)NC(=O)C(C)(C)NC(=O)[C@H](Cc1c[nH]c3ncccc13)NC(=O)[C@H]([C@@H](C)O)NC(=O)[C@@H]1CCCN1C(=O)[C@H](Cc1ccc(O)cc1)NC(=O)[C@H](C(C)(C)C)NC(=O)CCSCc1cccc(c1)CSC[C@@H](C(N)=O)NC2=O (some centres unmarked) [Compound 014] | 1 to 100 nM | 1 to 100 nM | 1 to 100 nM |

Next, values leading:

| IC50 (PCSK9 [1]) | IC50 (PCSK9 [2]) | IC50 [3] | SMILES |
| --- | --- | --- | --- |
| 21000 to 50000 nM | 500 to 5000 nM |  | CC(=O)N[C@H]1CSCc2cccc(c2)CSC[C@H](C(N)=O)NC(=O)[C@H]([C@H](C)O)NC(=O)[C@](C)(C(C)C)NC(=O)[C@H](Cc2ccc(O)cc2)NC(=O)[C@H](C)NC(=O)C(C)(C)NC(=O)[C@H](Cc2c[nH]c3ncccc23)NC(=O)[C@H]([C@@H](C)O)NC(=O)[C@@H]2CCCN2C(=O)[C@H](Cc2cccc(C(F)(F)F)c2)NC(=O)[C@H](C(C)(C)C)NC1=O [Compound 041] (Ac-C[Tle][Phe(3-CF3)]PT[Trp(7-aza)][Aib]AY[αMeV][aThr][dC]-NH2; linker 1-12 via mXylylene) |
| 100 to 1000 nM | 100 to 500 nM |  | COCC1(C)NC(=O)[C@H](Cc2c[nH]c3ncccc23)NC(=O)[C@H]([C@@H](C)O)NC(=O)[C@@H]2CCCN2C(=O)[C@H](Cc2ccc(O)cc2)NC(=O)[C@H](C(C)(C)C)NC(=O)[C@@H](NC(C)=O)CSCc2cccc(c2)CSC[C@H](C(N)=O)NC(=O)[C@H]([C@@H](C)O)NC(=O)[C@](C)(C(C)C)NC(=O)[C@H](Cc2ccc(O)cc2)NC(=O)[C@H](C)NC1=O (some centres unmarked) [Compound 035] (Ac-C[Tle]YPT[Trp(7-aza)][ξαMeS](Me)AY[αMeV]T[dC]-NH2; linker 1-12 via mXylylene) |
| 1 to 100 nM | 1 to 100 nM |  | CC(=O)N[C@H]1CSCc2cccc(c2)CSC[C@H](C(N)=O)NC(=O)[C@H]([C@H](C)O)NC(=O)[C@](C)(C(C)C)NC(=O)[C@H](Cc2ccc(O)cc2)NC(=O)[C@H](C)NC(=O)C(C)(C)NC(=O)[C@H](Cc2c[nH]c3ncccc23)NC(=O)[C@H]([C@@H](C)O)NC(=O)[C@@H]2CCCN2C(=O)[C@H](Cc2ccccc2)NC(=O)[C@H](C(C)(C)C)NC1=O [Compound 040] (Ac-C[Tle]FPT[Trp(7-aza)][Aib]AY[αMeV][aThr][dC]-NH2; linker 1-12 via mXylylene) |
